ChEMBL document CHEMBL1122884, “Syntheses and complement inhibitory activities of 4-(2-phenyl-1H-indol-3-yl)cyclohexane-1-carboxylic acids” (J Med Chem, 1985)

Experiments:
Cavia porcellus = assay: Inhibition dose of the Reverse Passive Arthus Reaction (RPAR) in guinea pig after intravenous administration at a dose 80 mg/kg; assay type: functional
Homo sapiens = organism: Homo sapiens; assay: In vitro inhibitory activity against human classical complement pathway; assay type: functional

Row | SMILES | inhibition in vivo at 80 mg/kg (Cavia porcellus) [%] | IC50 (Homo sapiens) [µM]
1 | O=C(O)C1CC=C(c2c(-c3ccccc3)[nH]c3ccccc23)CC1 (stereo not drawn) | 64 | 135
2 | O=C(O)c1ccc(-c2c(-c3ccccc3)[nH]c3ccccc23)cc1 | – | 105
